Source: US12091426B2, “Bifunctional degraders of hematopoietic progenitor kinase and therapeutic uses thereof” (Nurix Therapeutics, Inc., priority 2021, dated 2024)

Molecular target: T1, HPK1 (Homo sapiens, UniProt Q92918)
T1 construct: A HiBiT tag was introduced by CRISPR on the N terminus of HPK1 in Jurkat cells; host or cells: Jurkat cells (ATCC TIB-152), monoclonal line with CRISPR knock-in of HiBiT at the endogenous HPK1 locus
Experiment: HPK1 Cellular HiBit Degradation Assay
Type: cell-based
Settings: HiBiT HPK1 Jurkat cells, 24 hrs; for DC50: concentration at which 50% of HPK1 was remaining, read-out: DC50 Category; for Dmax: Jurkat, maximum degradation vs DMSO vehicle control, read-out: Dmax Category
Outline: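 HiBiT-HPK1 Jurkat (CRISPR, N-term tag), 3×10^4 cells/well, RPMI 1640 + 10% FBS; CTMs 10 uM–0.1 nM, 11 pts; 24 hrs, 37° C/5% CO2; lytic HiBiT luminescence; % remaining vs DMSO, parental background subtracted; 4-parameter fit → DC50, Dmax.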

T1 sequence (Q92918 whole entry): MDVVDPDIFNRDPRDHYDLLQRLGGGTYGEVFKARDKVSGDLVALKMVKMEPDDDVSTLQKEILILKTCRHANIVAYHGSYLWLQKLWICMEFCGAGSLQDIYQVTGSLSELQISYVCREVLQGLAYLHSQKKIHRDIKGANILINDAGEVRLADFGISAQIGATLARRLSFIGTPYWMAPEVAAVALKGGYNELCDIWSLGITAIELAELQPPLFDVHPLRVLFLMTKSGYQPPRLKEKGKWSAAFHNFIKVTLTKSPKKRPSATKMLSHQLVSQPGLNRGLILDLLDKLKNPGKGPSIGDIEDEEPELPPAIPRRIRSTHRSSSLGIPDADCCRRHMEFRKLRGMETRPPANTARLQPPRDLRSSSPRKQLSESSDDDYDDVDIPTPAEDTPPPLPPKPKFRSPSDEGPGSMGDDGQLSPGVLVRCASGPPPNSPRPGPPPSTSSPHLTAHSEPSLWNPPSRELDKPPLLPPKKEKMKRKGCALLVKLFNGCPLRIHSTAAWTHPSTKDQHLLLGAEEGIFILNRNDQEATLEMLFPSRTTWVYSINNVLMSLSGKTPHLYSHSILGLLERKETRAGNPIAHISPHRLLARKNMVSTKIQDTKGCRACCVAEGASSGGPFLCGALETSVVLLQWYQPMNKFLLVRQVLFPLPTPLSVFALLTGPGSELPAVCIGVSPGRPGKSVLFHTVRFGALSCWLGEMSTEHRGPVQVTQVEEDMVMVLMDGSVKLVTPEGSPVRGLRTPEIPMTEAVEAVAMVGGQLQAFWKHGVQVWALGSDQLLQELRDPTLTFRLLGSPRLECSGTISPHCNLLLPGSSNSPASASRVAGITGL

| DC50 [nM] | Dmax [%] | Compound |
| --- | --- | --- |
| < 100 | 70 to 85 | CC(C)n1cnc2cc(-c3ccc4c(c3)N([C@H]3C[C@@H](N5CCCCC5)C3)C(=O)C43CCN(C(=O)C4(C)CCN(C(=O)C5CCN(c6ccc(C7CCC(=O)NC7=O)nn6)CC5)CC4)CC3)nc(NC3CC3)c21 (mixture of isomers) [Example 209, (3RS)-3-(6-{4-[4-({6-[4-(cyclopropylamino)-3-(propan-2-yl)-3H-imidazo[4,5-c]pyridin-6-yl]-2-oxo-1-[(1S,3S)-3-(piperidin-1-yl)cyclobutyl]-1,2-dihydrospiro[indole-3,4′-piperidin]-1′-yl}carbonyl)-4-methylpiperidine-1-carbonyl]piperidin-1-yl}pyridazin-3-yl)piperidine-2,6-dione] |
| < 100 | 70 to 85 | CC(C)n1cnc2cc(-c3ccc4c(c3)N([C@H]3C[C@@H](N5CCCCC5)C3)C(=O)C43CCN(C(=O)[C@@H]4CCN(C(=O)[C@H]5CC[C@H](Oc6ccc(C7CCC(=O)NC7=O)cn6)CC5)C4)CC3)nc(NC3CCOCC3)c21 (mixture of isomers) [Example 19, (3RS)-3-(6-{[(1R,4R)-4-[(3R)-3-[(6-{4-[(oxan-4-yl)amino]-3-(propan-2-yl)-3H-imidazo[4,5-c]pyridin-6-yl}-2-oxo-1-[(1S,3S)-3-(piperidin-1-yl)cyclobutyl]-1,2-dihydrospiro[indole-3,4′-piperidin]-1′-yl)carbonyl]pyrrolidine-1-carbonyl]cyclohexyl]oxy}pyridin-3-yl)piperidine-2,6-dione] |
| 500 to 1000 | 50 to 70 | CC(C)n1cnc2cc(-c3ccc4c(c3)N([C@H]3C[C@@H](N5CCCCC5)C3)C(=O)C43CCN(C(=O)C4CCN(C(=O)N5CCC(c6ccc(C7CCC(=O)NC7=O)cn6)CC5)CC4)CC3)nc(Nc3ccccc3F)c21 (mixture of isomers) [Example 97, (3RS)-3-[6-(1-{4-[(6-{4-[(2-fluorophenyl)amino]-3-(propan-2-yl)-3H-imidazo[4,5-c]pyridin-6-yl}-2-oxo-1-[(1S,3S)-3-(piperidin-1-yl)cyclobutyl]-1,2-dihydrospiro[indole-3,4′-piperidin]-1′-yl)carbonyl]piperidine-1-carbonyl}piperidin-4-yl)pyridin-3-yl]piperidine-2,6-dione] |
| 100 to 500 | 50 to 70 | CC(C)n1cnc2cc(-c3ccc4c(c3)N([C@H]3C[C@@H](N5CCCCC5)C3)C(=O)C43CCN(C(=O)C4CCN(C(=O)C5CCN(c6ccc(C7CCC(=O)NC7=O)nc6)CC5)CC4)CC3)nc(NC3CC3)c21 (stereo partly drawn) [Example 84, 3-(5-{4-[4-({6-[4-(cyclopropylamino)-3-(propan-2-yl)-3H-imidazo[4,5-c]pyridin-6-yl]-2-Oxo-1-[(1S,3S)-3-(piperidin-1-yl)cyclobutyl]-1,2-dihydrospiro[indole-3,4′-piperidin]-1′-yl}carbonyl)piperidine-1-carbonyl]piperidin-1-yl}pyridin-2-yl)piperidine-2,6-dione] |
| < 100 | 50 to 70 | CC(C)n1cnc2cc(-c3ccc4c(c3)N([C@H]3C[C@@H](N5CCCCC5)C3)C(=O)C43CCN(C(=O)C4CCN(C(=O)CN5CCN(c6ccc(C7CCC(=O)NC7=O)cn6)CC5)CC4)CC3)nc(NC3CC3)c21 (mixture of isomers) [Example 94, (3RS)-3-[6-(4-{2-[4-({6-[4-(cyclopropylamino)-3-(propan-2-yl)-3H-imidazo[4,5-c]pyridin-6-yl]-2-oxo-1-[(1S,3S)-3-(piperidin-1-yl)cyclobutyl]-1,2-dihydrospiro[indole-3,4′-piperidin]-1′-yl}carbonyl)piperidin-1-yl]-2-oxoethyl}piperazin-1-yl)pyridin-3-yl]piperidine-2,6-dione] |
| < 100 | > 85 | CC(C)Nc1nc(-c2ccc3c(c2)N([C@H]2C[C@@H](N4CCCCC4)C2)C(=O)C32CCN(C(=O)C3(C)CCN(C(=O)C4CCN(c5ccc(C6CCC(=O)NC6=O)cn5)CC4)CC3)CC2)cc2ncn(C(C)C)c12 (stereo partly shown) [Example 166] |
| < 100 | > 85 | CC(C)n1cnc2cc(-c3ccc4c(c3)N([C@H]3C[C@@H](N5CCCCC5)C3)C(=O)C43CCN(C(=O)C4(C)CCN(C(=O)C5CCN(c6ccc(N7CCC(=O)NC7=O)cn6)CC5)CC4)CC3)nc(Nc3ccncc3F)c21 [Example 117, 1-[6-(4-{4-[(6-{4-[(3-fluoropyridin-4-yl)amino]-3-(propan-2-yl)-3H-imidazo[4,5-c]pyridin-6-yl}-2-oxo-1-[(1S,3S)-3-(piperidin-1-yl)cyclobutyl]-1,2-dihydrospiro[indole-3,4′-piperidin]-1′-yl)carbonyl]-4-methylpiperidine-1-carbonyl}piperidin-1-yl)pyridin-3-yl]-1,3-diazinane-2,4-dione] |
| < 100 | 70 to 85 | CC(C)n1cnc2cc(-c3ccc4c(c3)N([C@H]3C[C@@H](N5CCCCC5)C3)C(=O)C43CCN(C(=O)C4CN(C(=O)C5CCN(c6ccc(C7CCC(=O)NC7=O)cn6)CC5)CCC45CCC5)CC3)nc(NC3CC3)c21 (mixture of isomers) [Example 287, (3RS)-3-(6-{4-[5-({6-[4-(cyclopropylamino)-3-(propan-2-yl)-3H-imidazo[4,5-c]pyridin-6-yl]-2-oxo-1-[(1S,3S)-3-(piperidin-1-yl)cyclobutyl]-1,2-dihydrospiro[indole-3,4′-piperidin]-1′-yl}carbonyl)-7-azaspiro[3.5]nonane-7-carbonyl]piperidin-1-yl}pyridin-3-yl)piperidine-2,6-dione] |

Second part, the compound before the results:

| Compound | DC50 [nM] | Dmax [%] |
| --- | --- | --- |
| CC(C)n1cnc2cc(-c3ccc4c(c3)N([C@H]3C[C@@H](N5CCCCC5)C3)C(=O)C43CCN(C(=O)C4[C@@H]5C[C@H]4CN(C(=O)[C@H]4CC[C@H](Oc6ccc(C7CCC(=O)NC7=O)cc6)CC4)C5)CC3)nc(NC3CC3)c21 (stereo partly drawn) [Example 238, 3-(4-(((1R,4R)-4-((1R,5S,6S)-6-(6-(4-(cyclopropylamino)-3-isopropyl-3H-imidazo[4,5-c]pyridin-6-yl)-2-oxo-1-((1S,3S)-3-(piperidin-1-yl)cyclobutyl)spiro[indoline-3,4′-piperidine]-1′-carbonyl)-3-azabicyclo[3.1.1]heptane-3-carbonyl)cyclohexyl)oxy)phenyl)piperidine-2,6-dione] | < 100 | > 85 |
| CC(C)n1cnc2cc(-c3ccc4c(c3)N([C@H]3C[C@@H](N5CCCCC5)C3)C(=O)C43CCN(C(=O)[C@@H]4CCN(C(=O)C5CCN(c6ccc(C7CCC(=O)NC7=O)cn6)CC5)[C@@H]4C)CC3)nc(Nc3ccccc3F)c21 (mixture of isomers) [Example 249, (3RS)-3-(6-{4-[(2R,3R)-3-[(6-{4-[(2-fluorophenyl)amino]-3-(propan-2-yl)-3H-imidazo[4,5-c]pyridin-6-yl}-2-oxo-1-[(1S,3S)-3-(piperidin-1-yl)cyclobutyl]-1,2-dihydrospiro[indole-3,4′-piperidin]-1′-yl)carbonyl]-2-methylpyrrolidine-1-carbonyl]piperidin-1-yl}pyridin-3-yl)piperidine-2,6-dione] | < 100 | 50 to 70 |
| CC(C)n1cnc2cc(-c3ccc4c(c3)N([C@H]3C[C@@H](N5CCCCC5)C3)C(=O)C43CCN(C(=O)c4ccc(C(=O)N5CCN(c6ccc7c(c6)C(=O)N(C6CCC(=O)NC6=O)C7=O)CC5)cc4)CC3)nc(Nc3ccccc3F)c21 (mixture of isomers) [Example 41, 2-[(3RS)-2,6-dioxopiperidin-3-yl]-5-(4-{4-[(6-{4-[(2-fluorophenyl)amino]-3-(propan-2-yl)-3H-imidazo[4,5-c]pyridin-6-yl}-2-oxo-1-[(1S,3S)-3-(piperidin-1-yl)cyclobutyl]-1,2-dihydrospiro[indole-3,4′-piperidin]-1′-yl)carbonyl]benzoyl}piperazin-1-yl)-2,3-dihydro-1H-isoindole-1,3-dione] | 100 to 500 | > 85 |
| Cc1cc(F)c(Nc2nc(-c3ccc4c(c3)N([C@H]3C[C@@H](N5CCCCC5)C3)C(=O)C43CCN(C(=O)C4CCN(CC5CCN(c6cccc7c6n(C)c(=O)n7C6CCC(=O)NC6=O)CC5)CC4)CC3)cc3ncn(C(C)C)c23)cc1C(=O)NC(C)C (mixture of isomers) [Example 142, 5-{[6-(1′-{1-[(1-{1-[(3RS)-2,6-dioxopiperidin-3-yl]-3-methyl-2-oxo-2,3-dihydro-1H-1,3-benzodiazol-4-yl}piperidin-4-yl)methyl]piperidine-4-carbonyl}-2-oxo-1-[(1S,3S)-3-(piperidin-1-yl)cyclobutyl]-1,2-dihydrospiro[indole-3,4′-piperidin]-6-yl)-3-(propan-2-yl)-3H-imidazo[4,5-c]pyridin-4-yl]amino}-4-fluoro-2-methyl-N-(propan-2-yl)benzamide] | 500 to 1000 | 70 to 85 |
| CC(C)n1cnc2cc(-c3ccc4c(c3)N(C3CC(N5CCCCC5)C3)C(=O)C43CCN(CC(=O)N4CCN(C(=O)C5CCN(c6ccc(C7CCC(=O)NC7=O)cn6)CC5)CC4)CC3)nc(NC3CC3)c21 (stereo not shown) [Example 183, 3-(6-{4-[4-(2-{6-[4-(cyclopropylamino)-3-(propan-2-yl)-3H-imidazo[4,5-c]pyridin-6-yl]-2-oxo-1-[3-(piperidin-1-yl)cyclobutyl]-1,2-dihydrospiro[indole-3,4′-piperidine]-1′-yl}Acetyl)piperazine-1-carbonyl]piperidin-1-yl}pyridin-3-yl)piperidine-2,6-dione] | < 100 | > 85 |
| CC(C)n1cnc2cc(-c3ccc4c(c3)N([C@H]3C[C@@H](N5CCCCC5)C3)C(=O)C43CCN(C(=O)[C@H]4CC[C@H](C(=O)N5CCC(Oc6ccc(C7CCC(=O)NC7=O)cn6)CC5)CC4)CC3)nc(Nc3ccccc3F)c21 (mixture of isomers) [Example 28, (3RS)-3-[6-({1-[(1R,4R)-4-[(6-{4-[(2-fluorophenyl)amino]-3-(propan-2-yl)-3H-imidazo[4,5-c]pyridin-6-yl}-2-oxo-1-[(1S,3S)-3-(piperidin-1-yl)cyclobutyl]-1,2-dihydrospiro[indole-3,4′-piperidin]-1′-yl)carbonyl]cyclohexanecarbonyl]piperidin-4-yl}oxy)pyridin-3-yl]piperidine-2,6-dione] | < 100 | 70 to 85 |
